Assay results as given in ChEMBL document CHEMBL1909046, “DrugMatrix in vitro pharmacology data”.

Legend:
[1] = molecular target: T1, 5-hydroxytryptamine receptor 2C (Homo sapiens, UniProt P28335); experiment: DRUGMATRIX: Serotonin (5-Hydroxytryptamine) 5-HT2C radioligand binding (ligand: [3H] Mesulergine); assay type: cell membranes, CHO-K1, Membrane; conditions: cho-k1; Not Active = under 50% inhibition at 10 µM
T1 sequence (P28335 whole entry): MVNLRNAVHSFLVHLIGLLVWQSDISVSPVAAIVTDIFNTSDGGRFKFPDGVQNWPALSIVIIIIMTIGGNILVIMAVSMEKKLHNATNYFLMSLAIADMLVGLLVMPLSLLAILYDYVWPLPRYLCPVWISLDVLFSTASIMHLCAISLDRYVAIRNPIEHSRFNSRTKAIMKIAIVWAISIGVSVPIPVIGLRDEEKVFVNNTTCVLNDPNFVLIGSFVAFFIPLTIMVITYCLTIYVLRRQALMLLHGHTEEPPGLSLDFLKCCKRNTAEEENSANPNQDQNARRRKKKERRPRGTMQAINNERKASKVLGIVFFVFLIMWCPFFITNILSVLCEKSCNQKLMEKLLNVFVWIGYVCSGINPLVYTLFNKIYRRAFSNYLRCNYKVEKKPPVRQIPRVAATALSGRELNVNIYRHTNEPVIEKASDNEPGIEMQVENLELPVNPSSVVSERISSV

[2] = molecular target: T2, Leukotriene C4 synthase (Cavia porcellus, UniProt A6XA80); experiment: biochemical; assay type: tissue-based, Lung;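 further: enzyme inhibition assay of leukotriene C4 synthase, using LTA4 as the substrate; in other assays of this panel Not Active means under 50% inhibition at 10 µM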
T2 sequence (A6XA80 whole entry): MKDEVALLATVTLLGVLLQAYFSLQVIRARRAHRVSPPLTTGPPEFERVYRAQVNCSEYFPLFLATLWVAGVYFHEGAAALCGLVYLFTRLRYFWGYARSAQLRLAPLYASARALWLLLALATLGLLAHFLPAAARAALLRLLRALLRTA

[3] = molecular target: T3, C-C chemokine receptor type 4 (Homo sapiens, UniProt P51679); assay type: cell membranes, Chem-1, Membrane; conditions: chem-1; further: in other assays of this panel Not Active means under 50% inhibition at 10 µM
T3 sequence (P51679 whole entry): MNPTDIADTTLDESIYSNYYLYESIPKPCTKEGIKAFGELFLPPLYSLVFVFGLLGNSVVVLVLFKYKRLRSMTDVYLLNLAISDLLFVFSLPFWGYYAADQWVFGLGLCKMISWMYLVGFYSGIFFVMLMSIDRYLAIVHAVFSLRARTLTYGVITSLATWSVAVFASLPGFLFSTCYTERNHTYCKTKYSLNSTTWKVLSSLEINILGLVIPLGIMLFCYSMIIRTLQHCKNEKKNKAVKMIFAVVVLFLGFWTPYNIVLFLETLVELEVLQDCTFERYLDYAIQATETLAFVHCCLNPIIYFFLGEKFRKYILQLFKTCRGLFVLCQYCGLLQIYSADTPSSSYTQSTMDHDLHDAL

[4] = molecular target: T4, B2 bradykinin receptor (Homo sapiens, UniProt P30411); assay type: cell membranes, Membrane; conditions: chem-1; further: in other assays of this panel Not Active means under 50% inhibition at 10 µM
T4 sequence (P30411 whole entry): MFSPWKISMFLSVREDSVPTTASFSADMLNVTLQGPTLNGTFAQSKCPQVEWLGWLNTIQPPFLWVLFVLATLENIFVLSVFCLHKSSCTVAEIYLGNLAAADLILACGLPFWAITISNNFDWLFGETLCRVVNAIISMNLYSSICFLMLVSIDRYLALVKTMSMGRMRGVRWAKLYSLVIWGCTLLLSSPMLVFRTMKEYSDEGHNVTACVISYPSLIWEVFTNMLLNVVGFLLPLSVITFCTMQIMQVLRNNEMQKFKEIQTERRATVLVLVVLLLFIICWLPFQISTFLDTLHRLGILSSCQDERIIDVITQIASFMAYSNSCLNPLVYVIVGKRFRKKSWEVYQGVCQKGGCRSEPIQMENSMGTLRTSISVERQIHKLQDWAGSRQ

[5] = molecular target: Estrogen receptor beta (Homo sapiens, UniProt Q92731); conditions: sf9; further: in other assays of this panel Not Active means under 50% inhibition at 10 µM
[6] = molecular target: T5, C-X-C chemokine receptor type 1 (Homo sapiens, UniProt P25024); further: in other assays of this panel Not Active means under 50% inhibition at 10 µM
T5 sequence (P25024 whole entry): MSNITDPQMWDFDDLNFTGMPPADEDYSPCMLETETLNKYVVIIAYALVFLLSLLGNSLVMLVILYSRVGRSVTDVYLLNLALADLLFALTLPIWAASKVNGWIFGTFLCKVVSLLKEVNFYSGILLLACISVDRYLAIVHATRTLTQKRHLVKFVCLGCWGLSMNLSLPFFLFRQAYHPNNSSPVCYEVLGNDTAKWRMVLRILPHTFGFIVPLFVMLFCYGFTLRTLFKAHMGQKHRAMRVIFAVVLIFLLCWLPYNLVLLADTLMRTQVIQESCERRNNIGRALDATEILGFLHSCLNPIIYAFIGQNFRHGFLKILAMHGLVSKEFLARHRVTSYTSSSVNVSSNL

[7] = molecular target: T6, Interstitial collagenase (Homo sapiens, UniProt P03956); experiment: biochemical; assay type: tissue-based, Rheumatoid synovial fibroblasts
T6 sequence (P03956 whole entry): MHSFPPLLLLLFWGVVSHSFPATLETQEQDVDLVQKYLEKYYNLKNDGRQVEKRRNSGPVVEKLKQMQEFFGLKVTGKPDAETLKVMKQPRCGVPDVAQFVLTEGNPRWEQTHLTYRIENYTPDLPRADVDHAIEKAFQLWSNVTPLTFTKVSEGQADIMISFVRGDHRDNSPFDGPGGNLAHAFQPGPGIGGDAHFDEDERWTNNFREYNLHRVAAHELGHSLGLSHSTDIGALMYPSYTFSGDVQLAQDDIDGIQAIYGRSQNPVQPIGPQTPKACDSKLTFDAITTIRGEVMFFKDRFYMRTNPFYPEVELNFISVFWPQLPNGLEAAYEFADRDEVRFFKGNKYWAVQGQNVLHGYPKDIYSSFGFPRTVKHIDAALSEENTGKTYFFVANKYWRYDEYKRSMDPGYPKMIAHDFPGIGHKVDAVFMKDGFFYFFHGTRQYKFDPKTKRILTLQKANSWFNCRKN

[8] = DRUGMATRIX: Calcium Channel Type L, Phenylalkylamine radioligand binding (ligand: [3H] (-)-Desmethoxyverapamil (D-888)); assay type: cell membranes, Rattus norvegicus, Wistar, Brain, Membrane; conditions: Not Active = under 50% inhibition at 10 µM

Chain of Estrogen receptor beta (Q92731 whole entry): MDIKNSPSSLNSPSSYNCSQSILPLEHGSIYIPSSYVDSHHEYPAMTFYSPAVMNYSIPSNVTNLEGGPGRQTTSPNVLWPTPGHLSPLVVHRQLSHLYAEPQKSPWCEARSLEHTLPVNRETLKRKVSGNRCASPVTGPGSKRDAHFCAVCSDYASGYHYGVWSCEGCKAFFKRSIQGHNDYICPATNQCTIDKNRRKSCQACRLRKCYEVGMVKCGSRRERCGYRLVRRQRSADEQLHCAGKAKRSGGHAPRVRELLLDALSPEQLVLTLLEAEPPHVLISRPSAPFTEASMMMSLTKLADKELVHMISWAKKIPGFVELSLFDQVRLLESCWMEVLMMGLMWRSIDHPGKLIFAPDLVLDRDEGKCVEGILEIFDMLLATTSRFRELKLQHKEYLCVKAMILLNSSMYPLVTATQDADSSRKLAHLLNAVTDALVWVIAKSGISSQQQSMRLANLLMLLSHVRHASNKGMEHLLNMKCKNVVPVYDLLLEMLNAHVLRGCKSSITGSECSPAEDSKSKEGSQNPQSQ

CCC1(c2ccccc2)C(=O)NC(=O)NC1=O [PHENOBARBITAL]
Not Active: IC50 [1] | IC50 [2] | IC50 [3] | IC50 [4] | IC50 [5] | IC50 [6] | IC50 [7] | IC50 [8] | Ki [8]
